# Experimental data: patent publication US20230130766A1 (SALK INSTITUTE FOR BIOLOGICAL STUDIES, priority 2020, published 2023)
# What was measured:
# [1] = biological target: T1, ULK1 (Homo sapiens, UniProt O75385); experiment: ULK1 inhibition assay; assay type: biochemical; settings: * = tested as a mixture of regioisomers
# T1 sequence (O75385 1-1050): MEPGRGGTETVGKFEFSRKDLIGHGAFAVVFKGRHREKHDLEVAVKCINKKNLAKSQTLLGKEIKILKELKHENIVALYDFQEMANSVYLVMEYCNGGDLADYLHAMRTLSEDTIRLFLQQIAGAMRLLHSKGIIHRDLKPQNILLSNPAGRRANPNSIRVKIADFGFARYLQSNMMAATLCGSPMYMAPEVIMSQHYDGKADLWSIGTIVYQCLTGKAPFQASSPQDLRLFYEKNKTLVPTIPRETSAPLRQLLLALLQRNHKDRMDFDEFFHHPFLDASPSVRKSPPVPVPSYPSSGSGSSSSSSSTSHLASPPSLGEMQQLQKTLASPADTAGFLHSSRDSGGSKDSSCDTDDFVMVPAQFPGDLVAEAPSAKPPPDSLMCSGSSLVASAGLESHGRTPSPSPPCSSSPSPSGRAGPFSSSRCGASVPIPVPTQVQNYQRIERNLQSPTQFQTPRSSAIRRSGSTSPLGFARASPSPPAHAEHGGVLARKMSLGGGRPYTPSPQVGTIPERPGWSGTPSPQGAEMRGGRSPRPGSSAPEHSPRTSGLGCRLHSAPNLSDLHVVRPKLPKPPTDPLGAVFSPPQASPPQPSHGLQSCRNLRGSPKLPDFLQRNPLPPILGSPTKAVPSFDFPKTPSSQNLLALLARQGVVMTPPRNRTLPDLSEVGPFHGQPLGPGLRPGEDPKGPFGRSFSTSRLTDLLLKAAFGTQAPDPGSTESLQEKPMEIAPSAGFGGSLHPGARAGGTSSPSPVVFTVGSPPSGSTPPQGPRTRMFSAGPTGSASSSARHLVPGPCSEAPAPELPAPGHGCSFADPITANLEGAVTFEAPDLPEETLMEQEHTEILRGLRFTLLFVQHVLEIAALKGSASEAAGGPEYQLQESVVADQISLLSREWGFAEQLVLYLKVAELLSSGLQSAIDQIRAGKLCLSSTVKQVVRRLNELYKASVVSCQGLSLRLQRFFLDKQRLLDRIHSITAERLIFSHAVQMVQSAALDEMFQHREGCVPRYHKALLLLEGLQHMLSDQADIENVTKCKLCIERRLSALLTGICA
# [2] = test system: MDA-MB-468 cells; experiment: CellTiter-Glo cell viability dose-response matrix, synergy by Combenefit (Loewe model); assay type: cell-based; settings: 72 h; for concentrations at which significant synergy was observed: combination of Compound 349 and olaparib
# Experimental: Different concentrations of Compound 349 with olaparib (FIG. 13A) were tested to measure the combined effect of inhibiting both ULK1/2 and PARP. For these experiments, MDA-MB-468 cells were treated with Compound 349 (0-15 μM) and olaparib (0-15 μM) in a dose-response matrix for 72 h, and cell viability was assessed by a CellTiter-Glo assay, and the synergistic effect was analyzed with Combenefit using the Loewe model.
# [3] = test system: MDA-MB-468 cells expressing mCherry-EGFP-LC3; experiment: Autophagic flux by flow cytometry; assay type: cell-based; settings: 48 h
# Experimental: To investigate the mechanism by which Compound 349 potentiates the cytotoxic effects of PARP inhibitors, MDA-MB-468 cells expressing mCherry-EGFP-LC3 were treated with olaparib (30 μM) and/or Compound 349 (10 μM) for 48 h and then quantified for autophagic flux. For these experiments, MDA-MB-468 cells stably expressing the mCherry-GFP-LC3 fusion protein were plated in 6-well plates at a density of 6×10^5 cells/well in growth media DMEM/F12+GlutaMAX-1 (Gibco) supplemented with 10% FBS (Gibco) and 1× Anti-Anti (Gibco) and allowed to grow overnight. Cells were treated, trypsinized, and then resuspended in PBS, and analytical cytometry was performed using an LSRFortessa 14-color (BD Biosciences) with a 488 nm and […] laser. For flow cytometry, wild type MDA-MB-468 cells were used as the unstained control, and MDA-MB-468 cells expressing either mCherry or GFP were used for comparison. Events of 10,000 were collected for each sample.
# [4] = test system: A549 cells; experiment: A549 xenograft large tumors, ULK inhibitor alone versus carboplatin; assay type: in vivo, nude mice; settings: A549 large tumors (over 200 mm^3 at start); carboplatin 25 mg/kg every three days; day 72
# Experimental: A549 cells (5M cells) were injected bilaterally into the flanks of forty-six nude mice to create tumor xenografts in order to assess the efficacy of Compound 14 in treating larger non-small cell lung cancer tumors compared to carboplatin, the current standard of care therapy for non-small cell lung cancer. After 40 days of letting tumor cells proliferate (at which point tumors were over 200 mm^3 in volume), administration of carboplatin or Compound 14 was initiated. One cohort of twelve mice received 20 mg/kg twice daily doses of Compound 14, one cohort of ten mice received 30 mg/kg twice daily doses of Compound 14, one cohort of seven mice received 25 mg/kg doses of carboplatin every three days, one cohort of seven mice received 40 mg/kg once daily doses of Compound 14, and the remaining ten mice were treated with vehicle. Treatment and monitoring was continued until day 72 post inoculation of tumor cells (32 days of treatment).
# [5] = test system: A549 cells; experiment: A549 xenografts, ULK inhibitor alone and in combination with carboplatin; assay type: in vivo, nude mice
# Experimental: A549 cells (5M cells) were injected bilaterally into the flanks of thirty-six nude mice to create tumor xenografts in order to assess the efficacy of Compound 14 in treating non-small cell lung cancer tumors both alone and in combination with carboplatin, the current standard of care therapy for non-small cell lung cancer. After 11 days of letting tumor cells proliferate (at which point tumors were ˜50 mm^3 in volume), administration of carboplatin, Compound 14, or combinations began. One cohort of six mice received 20 mg/kg twice daily doses of Compound 14 alone, one cohort of six mice received 30 mg/kg twice daily doses of Compound 14 alone, one cohort of six mice received 25 mg/kg doses of carboplatin every three days, one cohort of six mice received 20 mg/kg twice daily doses of Compound 14 in conjunction with 25 mg/kg doses of carboplatin every three days, one cohort of six mice received 30 mg/kg twice daily doses of Compound 14 in conjunction with 25 mg/kg doses of carboplatin every three days, and the remaining six mice were treated with vehicle. Treatment and monitoring was continued until day 53 post inoculation of tumor cells (42 days of treatment).
# [6] = test system: MIA PaCa-2 cells; experiment: MIA PaCa-2 xenografts, ULK inhibitor alone versus gemcitabine; assay type: in vivo, nude mice; settings: day 42, Compound 14 20 mg/kg twice daily, gemcitabine dose not given
# Experimental: MIA PaCa-2 cells were injected bilaterally into the flanks of nude mice to create tumor xenografts in order to assess the efficacy of Compound 14 in treating pancreatic cancer tumors compared to gemcitabine, a current standard of care therapy for pancreatic cancer. After 3 days of letting tumor cells proliferate (at which point tumors were ˜100 mm^3 in volume), administration of gemcitabine or Compound 14 was initiated. One cohort received 20 mg/kg twice daily doses of Compound 14, one cohort received gemcitabine, and the remaining cohort was treated with vehicle. Treatment and monitoring were continued until day 42 post inoculation of tumor cells (30 days of treatment).
SMILES,IC50 [1],further results
COc1cc(Nc2ncc(Br)c(Oc3ccccc3NS(C)(=O)=O)n2)cc(OC)c1OC [Compound 345],> 2000 nM,
COc1cc(Nc2ncc(C(F)(F)F)c(Oc3ccccc3N)n2)cc(OC)c1OC [Compound 346],< 200 nM,
O=C1CCc2cc(Nc3ncc(C(F)(F)F)c(Nc4ccccc4CO)n3)ccc2N1 [Compound 347],< 200 nM,
COc1cc(Nc2ncc(Cl)c(Nc3ccccc3CO)n2)cc(OC)c1OC [Compound 348],> 2000 nM,
COc1ccc(Nc2ncc(C(F)(F)F)c(NC3CC3)n2)cc1OC [Compound 349],< 200 nM,"antiproliferative synergy ([2]; Compound 349 (0-15 μM) with olaparib (0-15 μM)): strong antiproliferative synergy; maximum synergy score ([2]; Compound 349 (0-15 μM) with olaparib (0-15 μM), Loewe model): 34; concentrations at which significant synergy was observed [2]: 0.021 to 15 µM; olaparib-induced increase in autophagic flux ([3]; Compound 349 10 μM concomitant with olaparib 30 μM): significantly suppressed the olaparib-induced increase in autophagic flux to a level similar to that observed in untreated control cells"
CC(=O)NNc1nc(Nc2ccc3c(c2)CCC(=O)N3)ncc1C(F)(F)F [Compound 350],> 2000 nM,
COc1cc(Nc2ncc(Br)c(Oc3cccc4ccncc34)n2)cc(OC)c1OC [Compound 351],> 2000 nM,
COc1cc(Nc2ncc(Br)c(Oc3cccc4[nH]nnc34)n2)cc(OC)c1OC [Compound 352],> 2000 nM,
"N.N.O=C([O-])C1(C(=O)[O-])CCC1.[Pt+2] [carboplatin, reference compound]",,"tumor volume by the end of the study [4]: above 500 mm^3; final tumor average volume ([5]; carboplatin 25 mg/kg every three days alone, day 53): ~200 mm^3; tumor growth compared to the control ([5]; monotherapy: carboplatin 25 mg/kg every three days, Compound 14 20 mg/kg twice daily): markedly reduced growth compared to the control"
"Nc1ccn([C@@H]2O[C@H](CO)[C@@H](O)C2(F)F)c(=O)n1 [gemcitabine, reference compound]",,final tumor volume [6]: ~800 mm^3
"O=C(c1cc(Cc2n[nH]c(=O)c3ccccc23)ccc1F)N1CCN(C(=O)C2CC2)CC1 [olaparib, reference compound]",,concentrations at which significant synergy was observed [2]: 3.8 to 15 µM; increase in autophagic flux compared with control cells ([3]; olaparib 30 μM alone): approximately 30%

# Continued, in another order:
IC50 [1],SMILES,further results
> 2000 nM,OCc1ccccc1Nc1nc(Nc2cc(F)c(F)c(F)c2)ncc1Br [Compound 353],
> 2000 nM,COc1cc(Nc2ncc(Br)c(Oc3cccc(O)c3[N+](=O)[O-])n2)cc(OC)c1OC [Compound 354],
> 2000 nM,COc1cc(Nc2ncc(Br)c(Oc3ccccc3C3=NC(C)(C)CO3)n2)cc(OC)c1OC [Compound 355],
> 2000 nM,COc1cc(Nc2ncc(Br)c(Oc3ccccc3[S+](C)[O-])n2)cc(OC)c1OC (stereo not drawn) [Compound 356],
200 to 2000 nM,O=C1CCc2cc(Nc3ncc(C(F)(F)F)c(OCCN4CCOC4=O)n3)ccc2N1 [Compound 357],
> 2000 nM,Nc1nc(N(C(=O)C2CC2)c2ccc3c(c2)CCC(=O)N3)ncc1C(F)(F)F [Compound 358],
